# Measurements as given in article PMC10082216 (Nature Communications, 2023).
# Where two headings read alike, the source gives them in different places.
# Assays:
# [1] = tested on: mature stage V gametocytes (NF54 strain); test: microbe, parasite or virus in culture; assay type: cell-based, Plasmodium falciparum; details: for Retention IC10: Fig. 3 dose-response; for IC50 / IC90: Plasmodium falciparum; for IC90: NF54, read-out: Retention IC90
# How it was run: (§1)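 NF54 stage V gametocytes (day 17, density-purified, 0.5% hematocrit) exposed 24 h to compounds at 1.11 µM (primary) or in dose-response. Killing scored by MitoTracker staining; gametocytemia by Sybr Green/CellMask staining, with microsphiltration for stiffening. DMSO 0.05% negative control.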
# [2] = tested on: mature stage V gametocytes (NF54 strain); test: High-throughput screening: killing effect by MitoTracker staining, primary screening at 1.11 µM and dose-response analysis; assay type: cell-based, Plasmodium falciparum; design: Killing 1 / Killing 2: unit not given here
# How it was run: as §1
# [3] = tested on: synchronized ring-stage P. falciparum 3D7-pULG8-GFP; test: Dose-response analysis on asexual parasites, 3D7; assay type: cell-based; details: Plasmodium falciparum
# Procedure: (§2) Plasmodium falciparum 3D7-pULG8-GFP or NF54 strains were synchronized by sorbitol lysis. Rings were then diluted to 0.5% parasitemia and loaded into an empty 96-well plate (200 µL/well). First, well volume was doubled and compound was added to obtain 20 µM (TD-6450) and 500 nM (NITD609) final concentrations. The ring suspension was then manually serially diluted 1/2 for 12 points, obtaining 9.77 nM (TD-6450) and 0.24 nM (NITD609) as lowest concentrations. The same operation was done with DMSO to have a negative control. After 48 hours of incubation, the plates were centrifugated and RBC pellets were incubated for 30 min with Sybr-G (1/1000 diluted in PBS, Thermo Fisher cat. no. S7567). After PBS washing (2x), pellets were resuspended in 200 µL of PBS and parasitemia was quantified by FACSCanto and analyzed with FlowJo V12. IC50s were determined using GraphPad Prism 5.1 as mentioned. Images from optical microscopy were taken using a Leica inverted microscope and analyzed with Las X software.
# [4] = tested on: synchronized ring-stage P. falciparum NF54; test: Dose-response analysis on asexual parasites, NF54; assay type: cell-based, Plasmodium falciparum; details: for Parasitemia 1 / Parasitemia 2 / Parasitemia 3: NF54 ring stage; for IC50: Plasmodium falciparum, NF54, 48 h
# Procedure: as §2
# [5] = tested on: stage V gametocytes of P. falciparum (3D7 pULG8-GFP strain); test: Post-screening validation with 96-well plate microsphiltration (Paris); assay type: cell-based, Plasmodium falciparum; details: eight-hour exposure
# [6] = NF54, 24 h, read-out: Stiffening IC50 (retention)
# [7] = 3D7, 48 h, read-out: IC50, 3D7 strain (Fig. 5B)
structure (smiles),measurement,setting,value
CNC(=O)N1C[C@@H](C)N(c2ccc(C(=O)Nc3ccc(-c4ccc(-c5c[nH]c([C@@H]6CCCN6C(=O)[C@@H](NC(=O)OC)C(C)C)n5)cc4)c(OC(F)(F)F)c3)cn2)C[C@@H]1C [TD-6450],outcome of primary screen (hit definition),[1]; 1.11 µM,met the hit definition
same,Retention 1,[1]; Concentration 0.00457,6.791
same,Retention 2,[1]; Concentration 0.00457,14.2035
same,Retention 1,[1]; Concentration 0.01372,30.2208
same,Retention 2,[1]; Concentration 0.01372,10.7025
same,Retention 1,[1]; Concentration 0.04115,30.7002
same,Retention 2,[1]; Concentration 0.04115,37.9062
same,Retention 1,[1]; Concentration 0.12346,45.793
same,Retention 2,[1]; Concentration 0.12346,33.0106
same,Retention 1,[1]; Concentration 0.37037,16.5379
same,Retention 2,[1]; Concentration 0.37037,35.496
same,Retention 1,[1]; Concentration 1.11111,46.8849
same,Retention 2,[1]; Concentration 1.11111,58.9321
same,Retention 1,[1]; Concentration 3.33333,60.4317
same,Retention 2,[1]; Concentration 3.33333,53.8901
same,Retention 1,[1]; Concentration 10,70.8882
same,Retention 2,[1]; Concentration 10,66.7706
same,Retention IC10,[1],30 nM
same,IC50,[1]; [6],550 nM
same,IC50,"[1]; NF54, read-out: IC50 during the screening campaign, all gametocytes stained",455 ± 304 nM
same,IC90,[1],4500 nM
same,differential retention rate versus DMSO upon primary screening,"[1]; one well/compound, 1.11 µM",32%
same,Killing 1,[2]; Concentration (µM) 0.00457,11.2808
same,Killing 2,[2]; Concentration (µM) 0.00457,-14.2963
same,Killing 1,[2]; Concentration (µM) 0.01372,2.341
same,Killing 2,[2]; Concentration (µM) 0.01372,5.18
same,Killing 1,[2]; Concentration (µM) 0.04115,2.7905
same,Killing 2,[2]; Concentration (µM) 0.04115,-6.465
same,Killing 1,[2]; Concentration (µM) 0.12346,6.495
same,Killing 2,[2]; Concentration (µM) 0.12346,2.622
same,Killing 1,[2]; Concentration (µM) 0.37037,21.5808
same,Killing 2,[2]; Concentration (µM) 0.37037,10.8967
same,Killing 1,[2]; Concentration (µM) 1.11111,13.8006
same,Killing 2,[2]; Concentration (µM) 1.11111,-5.531
same,Killing 1,[2]; Concentration (µM) 3.33333,21.7528
same,Killing 2,[2]; Concentration (µM) 3.33333,15.2641
same,Killing 1,[2]; Concentration (µM) 10,38.4381
same,Killing 2,[2]; Concentration (µM) 10,9.163
same,IC50,[3]; [7],730 nM
same,IC50,"[3]; 3D7, 2 experiments, 48 h, read-out: IC50 on asexual parasites, 3D7",875 ± 205 nM
same,Parasitemia 1,[4]; 10 µM,0.14
same,Parasitemia 2,[4]; 10 µM,0.17
same,Parasitemia 3,[4]; 10 µM,0.23
same,Parasitemia 1,[4]; 20 µM,0.2
same,Parasitemia 2,[4]; 20 µM,0.18
same,Parasitemia 3,[4]; 20 µM,0.2
same,IC50,"[4]; 2 experiments, read-out: IC50 on asexual parasites, NF54",1330 ± 230 nM
same,IC50,"[4]; ring stage, blue curves, read-out: IC50, NF54 strain (Fig. 5B)",1170 nM
same,concentration that significantly stiffens mature gametocytes,[5],200 nM
COc1cc2c(cc1OC)[C@@H]1Cc3ccc(OC)c(OC)c3CN1CC2 [(S)-(-)-Tetrahydropalmatine],Retention 1,[1]; Concentration 0.00457,36.1518
same,Retention 2,[1]; Concentration 0.00457,18.1904
same,Retention 1,[1]; Concentration 0.01372,42.4295
same,Retention 2,[1]; Concentration 0.01372,17.9082
same,Retention 1,[1]; Concentration 0.04115,39.0679
same,Retention 2,[1]; Concentration 0.04115,21.6203
same,Retention 1,[1]; Concentration 0.12346,52.9692
same,Retention 2,[1]; Concentration 0.12346,17.6021
same,Retention 1,[1]; Concentration 0.37037,34.5737
same,Retention 2,[1]; Concentration 0.37037,33.9194
same,Retention 1,[1]; Concentration 1.11111,41.4215
same,Retention 2,[1]; Concentration 1.11111,25.646
same,Retention 1,[1]; Concentration 3.33333,50.7426
same,Retention 2,[1]; Concentration 3.33333,20.0803
same,Retention 1,[1]; Concentration 10,49.3139
same,Retention 2,[1]; Concentration 10,22.5855
same,IC50,[1]; [6],1 nM
same,IC90,[1],6 nM
same,Killing 1,[2]; Concentration (µM) 0.00457,-2.5151
same,Killing 2,[2]; Concentration (µM) 0.00457,13.1152
same,Killing 1,[2]; Concentration (µM) 0.01372,-0.7507
same,Killing 2,[2]; Concentration (µM) 0.01372,16.6892
same,Killing 1,[2]; Concentration (µM) 0.04115,-11.759
same,Killing 2,[2]; Concentration (µM) 0.04115,-1.725
same,Killing 1,[2]; Concentration (µM) 0.12346,-2.104
same,Killing 2,[2]; Concentration (µM) 0.12346,-3.416
same,Killing 1,[2]; Concentration (µM) 0.37037,-7.032
same,Killing 2,[2]; Concentration (µM) 0.37037,6.932
same,Killing 2,[2]; Concentration (µM) 1.11111,-20.6174
same,Killing 2,[2]; Concentration (µM) 3.33333,1.7558
same,Killing 2,[2]; Concentration (µM) 10,-10.2887
"C[C@H]1Cc2c([nH]c3cc(Cl)c(F)cc23)[C@@]2(N1)C(=O)Nc1ccc(Cl)cc12 [NITD609, cipargamin]",Retention 1,[1]; Concentration 0.00457,5.495
same,Retention 2,[1]; Concentration 0.00457,24.2833
same,Retention 1,[1]; Concentration 0.01372,19.4986
same,Retention 2,[1]; Concentration 0.01372,27.3994
same,Retention 1,[1]; Concentration 0.04115,24.1896
same,Retention 2,[1]; Concentration 0.04115,16.3872
same,Retention 1,[1]; Concentration 0.12346,74.5556
same,Retention 2,[1]; Concentration 0.12346,59.61
same,Retention 1,[1]; Concentration 0.37037,100
same,Retention 2,[1]; Concentration 0.37037,100
same,Retention 1,[1]; Concentration 1.11111,100
same,Retention 2,[1]; Concentration 1.11111,94.1314
same,Retention 1,[1]; Concentration 3.33333,100
same,Retention 2,[1]; Concentration 3.33333,100
same,Retention 1,[1]; Concentration 10,100
same,Retention 2,[1]; Concentration 10,100
same,Retention IC10,[1],60 nM
same,IC50,[1]; [6],110 nM
same,IC90,[1],160 nM
same,Killing 1,[2]; Concentration (µM) 0.00457,-6.197
same,Killing 2,[2]; Concentration (µM) 0.00457,1.637
same,Killing 1,[2]; Concentration (µM) 0.01372,7.015
same,Killing 2,[2]; Concentration (µM) 0.01372,11.7246
same,Killing 1,[2]; Concentration (µM) 0.04115,2.936
same,Killing 2,[2]; Concentration (µM) 0.04115,8.401
same,Killing 1,[2]; Concentration (µM) 0.12346,38.3591
same,Killing 2,[2]; Concentration (µM) 0.12346,39.938
same,Killing 1,[2]; Concentration (µM) 0.37037,69.6281
same,Killing 2,[2]; Concentration (µM) 0.37037,81.8548
same,Killing 1,[2]; Concentration (µM) 1.11111,86.7644
same,Killing 2,[2]; Concentration (µM) 1.11111,86.5546
same,Killing 1,[2]; Concentration (µM) 3.33333,82.0471
same,Killing 2,[2]; Concentration (µM) 3.33333,89.8018
same,Killing 1,[2]; Concentration (µM) 10,93.1364
same,Killing 2,[2]; Concentration (µM) 10,89.7094
same,Killing IC10,[2]; Fig. 3 dose-response,50 nM
same,IC50,"[2]; Plasmodium falciparum, NF54, 24 h, stage V gametocytes NF54, 24 h, dose-response analysis, N/A = not active in dose-response analysis, read-out: Killing IC50",150 nM
same,IC90,"[2]; Plasmodium falciparum, NF54, Fig. 3 dose-response",500 nM
same,IC50,[3]; [7],1.25 nM
same,IC50,"[4]; ring stage, red curves, read-out: IC50, NF54 strain (Fig. 5B)",1.8 nM
